Experimental findings from patent US4200639A, “Sesbanine and the use thereof in treating leukemic tumors” (The United States of America as represented by the …, priority 1979, dated 1980) are described below.

The structures appear in SMILES notation. In brackets after ≈: the same amount, converted by molar mass.

One assay relates to KB Cell. As to the kind of experiment: KB Cell Culture Screen (NCI Protocol 1.600). It is filed as cell-based. An excerpt:
The chemotherapeutic activities of the fractions obtained in the isolation procedure may be determined by a KB Cell Culture Screen in accordance with the National Cancer Institute Protocol 1.600 [Geran et al., Cancer Chemother.

Assay [1] has as its system lymphocytic leukemia cells of the strain P388 (PS tumors). As to the kind of experiment: Survival of mice implanted with lymphocytic leukemia P388 (NCI Protocol 1.200). The following applies: mouse, in vivo.
Protocol: The effectiveness of alkaloid compounds against lymphocytic leukemia cells of the strain P388 (PS tumors) implanted in mice is another method of determining activity. These assays are made according to the National Cancer Institute Protocol 1.200 described in Geran et al. referred to above. […] Starting 24 hr. after the tumor implantation, previously determined dosages of each compound were injected intraperitoneally once a day for 9 days. Survival time of treated leukemic mice is compared to that of untreated leukemic mice (T/C×100). A T/C value of 100% indicated no activity.
^2 All mice were male, CD2 F1.
^3 The injection vehicle was saline.
^4 One intraperitoneal injection per day for 9 days.

`O=C1NC(=O)[C@@]2(CC[C@@H](O)C2)c2ccncc21` (relative stereo) [sesbanine, trans-3-hydroxyspiro[cyclopentane-1,4'(1'H)[2,7]naphthyridine]-1',3'(2'H)-dione]: the IC50 in the assay with KB Cell (Homo sapiens, KB, 72 h, 3 days after drug addition, active if ED 50 ≤30 μg./ml., read-out: ED 50 (dose that inhibits growth to 50% of control growth)) was found to be 0.047 µg/mL (≈ 0.202 µM). Also, the “activity of fractions during isolation (in words)” value in the assay with KB Cell (among fractions of the respective separation step, Example 1) was “the most active”. Also, the “activity against leukemia in animals (in words)” value in assay [1] is on record as “potent activity against leukemia in animals”.
